ChEMBL document CHEMBL4665624, “Synthesis of 5-(4-(1H-phenanthro[9,10-d]imidazol-2-yl)benzylidene)thiazolidine-2,4-dione as promising DNA and serum albumin-binding agents and evaluation of antitumor activity” (Eur J Med Chem, 2019)
The source made the active and inactive calls. The calls are words filed in the database; no cut-off is given here.

What was measured:
SNB-75 = experiment: Antitumor activity against human SNB-75 cells assessed as cell growth inhibition at 10 uM incubated for 48 hrs by sulforhodamine B assay; assay type: functional; conditions: read-out: GI
A549 [1] = experiment: Cytotoxicity against human A549/ATCC assessed as reduction in cell viability at 100 uM after 48 hrs by MTT assay; assay type: functional
SN12C = experiment: Antitumor activity against human SN12C cells assessed as cell growth inhibition at 10 uM incubated for 48 hrs by sulforhodamine B assay; assay type: functional; conditions: read-out: GI
Calf thymus DNA [2] = experiment: Binding affinity to minor groove of calf thymus DNA assessed as ICD band intensity between 350 and 400 nm at 1 uM by CD spectroscopy; assay type: nucleic-acid assay; conditions: Bos taurus
SR = experiment: Antitumor activity against human SR cells assessed as cell growth inhibition at 10 uM incubated for 48 hrs by sulforhodamine B assay; assay type: functional; conditions: read-out: GI
[3] = Ratio of Kb for human DNA in blood to Kb for calf thymus DNA
ACHN = experiment: Antitumor activity against human ACHN cells assessed as cell growth inhibition at 10 uM incubated for 48 hrs by sulforhodamine B assay; assay type: functional; conditions: read-out: GI
HOP-92 = experiment: Antitumor activity against human HOP92 cells assessed as cell growth inhibition at 10 uM incubated for 48 hrs by sulforhodamine B assay; assay type: functional; conditions: read-out: GI
Calf thymus DNA [4] = experiment: Binding affinity to calf thymus DNA assessed as DNA intercalation by measuring increase in melting temperature of DNA at 10 uM by thermal denaturation based spectrophotometric analysis; assay type: nucleic-acid assay; conditions: Bos taurus
SK-OV-3 = experiment: Antitumor activity against human SK-OV-3 cells assessed as cell growth inhibition at 10 uM incubated for 48 hrs by sulforhodamine B assay; assay type: functional; conditions: read-out: GI
Albumin [5] = biological target: T1, Albumin (Bos taurus, UniProt P02769); experiment: Binding affinity to bovine serum albumin assessed as hydrophobic interaction by measuring change in entropy at 298K by thermodynamic based analysis; assay type: ADME, cell-free; conditions: cattle
Albumin [6] = biological target: T1, Albumin; experiment: Binding affinity to bovine serum albumin assessed as spontaneous interaction by measuring change in gibbs free energy at 318K by thermodynamic based analysis; assay type: ADME, cell-free; conditions: cattle
Calf thymus DNA [7] = experiment: Binding affinity to calf thymus DNA (unknown origin) assessed as binding constant by ethidium bromide competitive displacement assay; assay type: nucleic-acid assay; conditions: Bos taurus
A549 [8] = experiment: Cytotoxicity against human A549/ATCC assessed as reduction in cell viability at 1 uM after 48 hrs by MTT assay; assay type: functional
Albumin [9] = biological target: T1, Albumin; experiment: Binding affinity to bovine serum albumin assessed as quenching constant at 298K by fluorescence emission spectrum analysis; assay type: ADME, cell-free; conditions: cattle
RXF 393 = experiment: Antitumor activity against human RXF 393 cells assessed as cell growth inhibition at 10 uM incubated for 48 hrs by sulforhodamine B assay; assay type: functional; conditions: read-out: GI
MDA-MB-231 = experiment: Antitumor activity against human MDA-MB-231/ATCC cells assessed as cell growth inhibition at 10 uM incubated for 48 hrs by sulforhodamine B assay; assay type: functional; conditions: read-out: GI
DNA [10] = experiment: Binding affinity to human DNA in blood assessed as DNA intercalation by measuring hypochromic shift at 398 nm at 20 uM by UV-Vis spectral titration analysis; assay type: tissue-based
Albumin [11] = biological target: T1, Albumin; experiment: Binding affinity to bovine serum albumin assessed as binding constant at 308K by fluorescence emission spectrum analysis; assay type: ADME, cell-free; conditions: cattle
LOX IMVI = experiment: Antitumor activity against human LOX IMVI cells assessed as cell growth inhibition at 10 uM incubated for 48 hrs by sulforhodamine B assay; assay type: functional; conditions: read-out: GI
Calf thymus DNA [12] = experiment: Binding affinity to calf thymus DNA assessed as quenching constant by fluorescence emission spectroscopic analysis; assay type: nucleic-acid assay; conditions: Bos taurus
Albumin [13] = biological target: T2, Albumin (Homo sapiens, UniProt P02768); experiment: Binding affinity to human serum albumin assessed as increase in peak absorption intensity at 280 nm at 0-7 uM by UV-Vis absorption spectroscopy; assay type: ADME, cell-free; conditions: 0.28 µM
PC-3 = experiment: Antitumor activity against human PC-3 cells assessed as cell growth inhibition at 10 uM incubated for 48 hrs by sulforhodamine B assay; assay type: functional; conditions: read-out: GI
SF-295 = experiment: Antitumor activity against human SF295 cells assessed as cell growth inhibition at 10 uM incubated for 48 hrs by sulforhodamine B assay; assay type: functional; conditions: read-out: GI
Albumin [14] = biological target: T2, Albumin; experiment: Binding affinity to human serum albumin assessed as Stern-Volmer quenching constant by fluorescence emission spectroscopy; assay type: ADME, cell-free
Calf thymus DNA [15] = experiment: Binding affinity to calf thymus DNA assessed as increase in fluorescence emission intensity at 468 nm at 20 uM by fluorescence emission spectroscopic analysis; assay type: nucleic-acid assay; conditions: Bos taurus
HEK293 = experiment: Cytotoxicity against human HEK293 assessed as reduction in cell viability at 0.01 uM after 48 hrs by MTT assay; assay type: cell-based; conditions: hek293, 48 h
A549 [16] = experiment: Cytotoxicity against human A549/ATCC assessed as reduction in cell viability at 10 uM after 48 hrs by MTT assay; assay type: functional
Albumin [17] = biological target: T1, Albumin; experiment: Binding affinity to bovine serum albumin assessed as Stern-Volmer quenching constant at 298K by fluorescence emission spectrum analysis; assay type: ADME, cell-free; conditions: cattle
Albumin [18] = biological target: T1, Albumin; experiment: Binding affinity to bovine serum albumin assessed as increase in absorption intensity at 280 nm at 0-10 uM by UV-vis absorption spectral titration analysis; assay type: ADME, cell-free; conditions: cattle
Albumin [19] = biological target: T1, Albumin; experiment: Binding affinity to bovine serum albumin assessed as binding constant at 318K by fluorescence emission spectrum analysis; assay type: ADME, cell-free; conditions: cattle
DNA [20] = experiment: Binding affinity to human DNA in blood assessed as Stern-Volmer quenching constant by fluorescence emission spectrum analysis; assay type: tissue-based
EKVX = experiment: Antitumor activity against human EKVX cells assessed as cell growth inhibition at 10 uM incubated for 48 hrs by sulforhodamine B assay; assay type: functional; conditions: read-out: GI
Calf thymus DNA [21] = experiment: Binding affinity to calf thymus DNA assessed as Stern-Volmer quenching constant by ethidium bromide competitive displacement assay; assay type: nucleic-acid assay; conditions: Bos taurus
KM12 = experiment: Antitumor activity against human KM12 cells assessed as cell growth inhibition at 10 uM incubated for 48 hrs by sulforhodamine B assay; assay type: functional; conditions: read-out: GI
HCT-116 = experiment: Antitumor activity against human HCT116 cells assessed as cell growth inhibition at 10 uM incubated for 48 hrs by sulforhodamine B assay; assay type: functional; conditions: read-out: GI
HCT-15 = experiment: Antitumor activity against human HCT15 cells assessed as cell growth inhibition at 10 uM incubated for 48 hrs by sulforhodamine B assay; assay type: functional; conditions: read-out: GI
Calf thymus DNA [22] = experiment: Binding affinity to calf thymus DNA assessed as binding constant by fluorescence emission spectroscopic analysis; assay type: nucleic-acid assay; conditions: Bos taurus
DNA [23] = experiment: Binding affinity to human DNA in blood assessed as binding constant by fluorescence emission spectrum analysis; assay type: tissue-based
Albumin [24] = biological target: T2, Albumin; experiment: Binding affinity to human serum albumin assessed as binding constant by fluorescence emission spectroscopy; assay type: ADME, cell-free
SW-620 = experiment: Antitumor activity against human SW620 cells assessed as cell growth inhibition at 10 uM incubated for 48 hrs by sulforhodamine B assay; conditions: SW-620, 48 h, read-out: GI
MDA-MB-468 = experiment: Antitumor activity against human MDA-MB-468 cells assessed as cell growth inhibition at 10 uM incubated for 48 hrs by sulforhodamine B assay; assay type: functional; conditions: read-out: GI
IGROV-1 = experiment: Antitumor activity against human IGROV1 cells assessed as cell growth inhibition at 10 uM incubated for 48 hrs by sulforhodamine B assay; assay type: functional; conditions: read-out: GI
OVCAR-4 = experiment: Antitumor activity against human OVCAR-4 cells assessed as cell growth inhibition at 10 uM incubated for 48 hrs by sulforhodamine B assay; assay type: functional; conditions: read-out: GI

T1 sequence (P02769 whole entry): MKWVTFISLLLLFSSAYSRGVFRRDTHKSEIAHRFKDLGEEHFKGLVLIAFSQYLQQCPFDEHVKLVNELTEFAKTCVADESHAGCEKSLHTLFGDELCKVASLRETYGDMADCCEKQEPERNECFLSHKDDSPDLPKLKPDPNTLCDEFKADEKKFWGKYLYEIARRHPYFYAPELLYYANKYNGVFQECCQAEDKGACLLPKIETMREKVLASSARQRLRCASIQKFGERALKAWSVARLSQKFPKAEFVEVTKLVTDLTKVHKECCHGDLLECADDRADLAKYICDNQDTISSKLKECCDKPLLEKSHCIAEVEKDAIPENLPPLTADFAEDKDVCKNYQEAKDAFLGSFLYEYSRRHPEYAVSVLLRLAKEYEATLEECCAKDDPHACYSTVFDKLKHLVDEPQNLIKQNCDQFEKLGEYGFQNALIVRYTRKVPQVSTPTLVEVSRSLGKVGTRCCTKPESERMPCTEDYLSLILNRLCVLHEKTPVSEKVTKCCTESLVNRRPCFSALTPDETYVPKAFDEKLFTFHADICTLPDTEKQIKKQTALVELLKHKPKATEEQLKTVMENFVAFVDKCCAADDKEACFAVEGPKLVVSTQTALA
T2 sequence (P02768 whole entry): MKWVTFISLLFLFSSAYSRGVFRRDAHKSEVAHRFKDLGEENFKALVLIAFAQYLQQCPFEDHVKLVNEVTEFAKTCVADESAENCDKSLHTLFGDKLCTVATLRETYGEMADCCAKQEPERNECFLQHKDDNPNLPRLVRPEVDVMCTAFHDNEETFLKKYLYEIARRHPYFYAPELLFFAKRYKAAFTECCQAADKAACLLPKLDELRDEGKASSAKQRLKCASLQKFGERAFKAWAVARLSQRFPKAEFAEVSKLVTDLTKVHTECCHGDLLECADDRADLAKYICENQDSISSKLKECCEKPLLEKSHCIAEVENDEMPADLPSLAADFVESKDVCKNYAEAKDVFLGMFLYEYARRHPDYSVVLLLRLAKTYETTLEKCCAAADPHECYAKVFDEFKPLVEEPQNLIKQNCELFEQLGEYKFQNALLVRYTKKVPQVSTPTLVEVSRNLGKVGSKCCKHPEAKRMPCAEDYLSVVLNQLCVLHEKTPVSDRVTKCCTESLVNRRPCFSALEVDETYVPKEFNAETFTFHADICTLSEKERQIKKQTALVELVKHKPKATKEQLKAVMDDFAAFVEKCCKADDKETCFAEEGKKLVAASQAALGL

O=C1NC(=O)/C(=C/c2ccc(-c3nc4c5ccccc5c5ccccc5c4[nH]3)cc2)S1
inhibition of growth at 10 µM (SNB-75): < 10%
Activity (A549 [1]): 90%
inhibition of growth at 10 µM (SN12C): < 10%
Activity (Calf thymus DNA [2]): inactive
inhibition of growth at 10 µM (SR): 79.2%
Ratio [3]: 2
inhibition of growth at 10 µM (ACHN): 33.4%
inhibition of growth at 10 µM (HOP-92): 21.4%
ΔTm (Calf thymus DNA [4]): 7.1 °C
inhibition of growth at 10 µM (SK-OV-3): < 10%
deltaS (Albumin [5]): 20.43 cal/mol.K
deltaG (Albumin [6]): -9.41 kcal/mol
Kb (Calf thymus DNA [7]): 1 10^5/M
Activity (A549 [8]): 75%
Kq (Albumin [9]): 8.42 10^13/M/sec
inhibition of growth at 10 µM (RXF 393): 19.1%
inhibition of growth at 10 µM (MDA-MB-231): 15.6%
Activity (DNA [10]): Active
Kb (Albumin [11]): 3.56 10^6/M
inhibition of growth at 10 µM (LOX IMVI): 36.7%
Kq (Calf thymus DNA [12]): 1.88 10^11/M/s
Activity (Albumin [13]): Active
inhibition of growth at 10 µM (PC-3): 51.9%
inhibition of growth at 10 µM (SF-295): 16.3%
KSV (Albumin [14]): 3.01 10^6/M
Activity (Calf thymus DNA [15]): Active
Activity (HEK293): 4%
Activity (A549 [16]): 78%
KSV (Albumin [17]): 8.42 10^5/M
Activity (Albumin [18]): Active
Kb (Albumin [19]): 2.97 10^6/M
KSV (DNA [20]): 3.46 10^3/M
inhibition of growth at 10 µM (EKVX): 11.5%
KSV (Calf thymus DNA [21]): 6.53 10^4/M
inhibition of growth at 10 µM (KM12): 43.9%
inhibition of growth at 10 µM (HCT-116): 65.5%
inhibition of growth at 10 µM (HCT-15): 50%
Kb (Calf thymus DNA [22]): 1.95 10^5/M
Kb (DNA [23]): 7.09 10^5/M
Kb (Albumin [24]): 7.29 10^6/M
inhibition of growth at 10 µM (SW-620): 22.8%
inhibition of growth at 10 µM (MDA-MB-468): 51.7%
inhibition of growth at 10 µM (IGROV-1): < 10%
inhibition of growth at 10 µM (OVCAR-4): < 10%
